Source: patent publication US8906946B2, “TRPM8 receptor antagonists” (Dompe' S.p.A., priority 2011, dated 2014)
“And” between values parts separate entries of the source, which are not always exact repeats. Equal values may be shown once.

How the values were obtained:
CYP2D6 = CYP2D6 (Homo sapiens, UniProt P10635); assay: CYP inhibition 2D6; assay type: in vitro ADME; conditions: 2D6, 10 μM
CYP2C19 = CYP2C19 (Homo sapiens, UniProt P33261); assay: CYP inhibition 2C19; assay type: in vitro ADME; conditions: 2C19, 10 μM
[1] = system: rhythmic bladder contractions; assay: Isovolumetric bladder model, intravenous protocol; assay type: in vivo, rat; conditions: 10 mg/kg i.v., anesthetized female rats
Description: Female rats were anesthetized with urethane. Ureters were ligated and sectioned. A catheter was inserted through the urinary meatus into the bladder before urethral ligature. Two protocols for testing compounds were used: intravenous (i.v.) or intravesical (i.ves.) administration.
In the first protocol, the bladder was filled by step of 100 μL of saline every 5 min until the occurrence of rhythmic bladder contractions (RBC). After a 30 min control period, compound (1) dissolved in solutol/NMP solution (2:1 w/w) at a dosage of 10 mg/kg, or vehicle were administered i.v (1 ml in 5 min) […] and the resulting effect was followed for 60 min. For each group, Micturition Frequency (MF) and Amplitude of Micturition (AM) were measured during the control and treatment periods.

t1/2 i.v. rat = conditions: in vivo, iv
human TRPM8 = human TRPM8 (Homo sapiens, UniProt Q7Z2W7); assay: High-throughput FLIPR TETRA calcium fluorescence assay for TRPM8 antagonists in HEK293/hTRPM8 cells; assay type: cell-based; design: expressed in transfected cells; conditions: agonist Cooling Agent 10 at EC80, Ca2+ fluorescence
Excerpt: A functional cell-based assay for the identification of TRPM8 receptor antagonists, optimised to allow high throughput screening at FLIPR^TETRA, was developed in HEK293 cells by stable pure clone selection and functional characterization with a fluorescent calcium sensitive dye.
TRPM8 was cloned into the multiple clonig site of pcDNA3 mammalian expression vector; the obtained construct pcDNA3/hTRPM8 was fully sequence verified and used for the transfection of HEK293 cell line. HEK293 cells stably transfected with TRPM8 gene were maintained in Minimum essential medium. The cells were transfected with the pcDNA3/hTRPM8 vector by electroporation and then selected with medium containing 0.8 mg/ml G418 for 10-15 days.
The following commercial compounds were used as ligands: • Activator: Cooling Agent 10 (Takasago CAS N. 87061-04-9) • Blocker: Capsazepine (SIGMA cat #D—5879)
The experimental activities were performed using FLIPR^TETRA instruments.
HEK293 cells stably transfected with TRPM8 gene were maintained in Minimum essential medium.
The TRPM8 cell line was analysed for the response to a library of compounds using a Ca^2+ mobilization-dependent fluorescence signal in 384 wells microtiter plate format. The analysis was performed using the FLIPR^TETRA (MDC) with the ICCD Camera.
The execution of the assay involved the use of three microtiter plates:
1. Assay plate, containing cells loaded with dye and prepared as follows:
Cells were seeded at 15000 c/well in Poly-D-Lysine coated 384 wells Microtiter Plates in complete medium (25 μl/well).
24 h after seeding, the cell plates were washed with Tyrode assay buffer by the Microplate Washer and 10 μL of Tyrode assay buffer was left in each well.
Cells were then loaded with 10 μL/well of the Fluo-4 NW dye solution by CyBi®-Well pipettor. Each bottle of Fluo4-NW dye (Molecular Probes cat. #F36206, component A) was re-suspended in 8 mL of Tyrode assay buffer and supplemented with 100 μL of water-soluble probenecid (MolecularProbes cat.#F36206, component B).
Dye loaded cell plates were incubated for 1 h at room temperature.
2. Compound Dilution Plate (FIG. 1), containing diluted test compounds, formulated as follows: • Column 1: wells containing Assay Buffer plus DMSO 0.5% final • Column 2: wells alternating Max Signal Control in first injection (Maximum Response: Cooling Agent 10 at EC100, 100 μM) and Min Signal Control in first injection (Assay buffer plus 0.5% DMSO final); • Columns 3-22: wells containing Assay Buffer plus 0.5% DMSO final. To these wells the compounds to be tested were added at 3× concentration. • Column 23: alternating wells of Max Signal Control in second injection (Assay buffer) and Min Signal Control in second injection (Antagonist Capsazepine IC100, 50 μM) in Assay buffer plus 0.5% DMSO final; • Column 24: wells containing Capsazepine (Antagonist) at 8 concentrations in duplicate at final concentrations of […] in Assay buffer plus 0.5% DMSO final.
3. Activator Plate (FIG. 2), containing agonist Cooling Agent 10 at EC80, formulated as follows: • Column 1: Cooling Agent 10 (Agonist) at 8 concentrations dose response in duplicate at final concentrations of […] in Assay buffer; • Columns 2-24: Cooling Agent 10 (Agonist) at EC80 (3 fold concentrated, 20 μM final) in Assay buffer.
The test was carried out according to a procedure comprising the following steps: • 1. The samples contained in the wells of the Compound Plate were added to the corresponding wells of the Assay Plate by the FLIPR^TETRA, thus resulting in the addition in Columns 3-22 of the test compounds at 3× concentration to the cells of the assay plates. No mixing was performed in the assay wells and the signal of the emitted fluorescence was recorded for 300 seconds. • 2.

Chain of human TRPM8 (Q7Z2W7 whole entry): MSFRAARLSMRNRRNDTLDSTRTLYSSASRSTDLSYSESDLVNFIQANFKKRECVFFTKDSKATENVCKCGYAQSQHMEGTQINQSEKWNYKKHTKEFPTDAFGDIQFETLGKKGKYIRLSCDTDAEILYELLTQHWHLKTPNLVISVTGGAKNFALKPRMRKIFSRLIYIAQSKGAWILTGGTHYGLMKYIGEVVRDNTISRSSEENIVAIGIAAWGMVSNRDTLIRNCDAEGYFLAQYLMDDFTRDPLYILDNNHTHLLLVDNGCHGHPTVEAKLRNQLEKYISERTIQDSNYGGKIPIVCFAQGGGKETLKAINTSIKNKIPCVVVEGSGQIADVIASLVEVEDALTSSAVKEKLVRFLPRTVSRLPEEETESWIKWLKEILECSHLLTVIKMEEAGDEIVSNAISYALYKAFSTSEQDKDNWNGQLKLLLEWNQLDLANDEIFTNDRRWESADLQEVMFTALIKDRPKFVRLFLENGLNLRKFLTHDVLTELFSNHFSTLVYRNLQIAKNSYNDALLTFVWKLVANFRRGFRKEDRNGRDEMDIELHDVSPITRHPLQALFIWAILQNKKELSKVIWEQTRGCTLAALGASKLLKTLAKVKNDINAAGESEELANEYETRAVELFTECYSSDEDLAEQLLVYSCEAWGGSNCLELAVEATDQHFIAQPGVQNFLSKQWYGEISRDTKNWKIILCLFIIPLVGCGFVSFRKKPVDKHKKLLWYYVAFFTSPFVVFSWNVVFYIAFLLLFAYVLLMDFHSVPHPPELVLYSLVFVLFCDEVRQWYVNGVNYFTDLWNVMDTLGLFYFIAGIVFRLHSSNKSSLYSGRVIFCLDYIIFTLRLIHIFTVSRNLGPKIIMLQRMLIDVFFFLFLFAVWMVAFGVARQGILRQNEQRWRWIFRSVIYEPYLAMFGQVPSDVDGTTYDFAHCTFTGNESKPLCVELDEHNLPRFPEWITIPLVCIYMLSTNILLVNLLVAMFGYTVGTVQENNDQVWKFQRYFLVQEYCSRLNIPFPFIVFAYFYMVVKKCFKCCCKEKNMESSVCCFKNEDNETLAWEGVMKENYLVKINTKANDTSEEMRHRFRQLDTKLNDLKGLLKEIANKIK
Chain of CYP2D6 (P10635 whole entry): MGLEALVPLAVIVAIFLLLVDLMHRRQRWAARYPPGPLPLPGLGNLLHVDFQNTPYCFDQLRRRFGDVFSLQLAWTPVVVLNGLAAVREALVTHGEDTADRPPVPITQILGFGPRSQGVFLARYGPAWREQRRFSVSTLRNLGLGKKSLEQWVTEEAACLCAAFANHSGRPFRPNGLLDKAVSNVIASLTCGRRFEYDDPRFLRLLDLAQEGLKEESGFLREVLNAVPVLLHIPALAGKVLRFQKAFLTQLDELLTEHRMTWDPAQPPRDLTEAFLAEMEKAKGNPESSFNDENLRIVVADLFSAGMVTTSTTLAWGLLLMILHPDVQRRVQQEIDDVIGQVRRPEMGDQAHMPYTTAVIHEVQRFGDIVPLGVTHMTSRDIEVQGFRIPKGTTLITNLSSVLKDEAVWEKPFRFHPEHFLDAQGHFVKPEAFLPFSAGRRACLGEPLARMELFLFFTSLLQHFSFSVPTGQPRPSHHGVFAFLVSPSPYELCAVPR
Chain of CYP2C19 (P33261 whole entry): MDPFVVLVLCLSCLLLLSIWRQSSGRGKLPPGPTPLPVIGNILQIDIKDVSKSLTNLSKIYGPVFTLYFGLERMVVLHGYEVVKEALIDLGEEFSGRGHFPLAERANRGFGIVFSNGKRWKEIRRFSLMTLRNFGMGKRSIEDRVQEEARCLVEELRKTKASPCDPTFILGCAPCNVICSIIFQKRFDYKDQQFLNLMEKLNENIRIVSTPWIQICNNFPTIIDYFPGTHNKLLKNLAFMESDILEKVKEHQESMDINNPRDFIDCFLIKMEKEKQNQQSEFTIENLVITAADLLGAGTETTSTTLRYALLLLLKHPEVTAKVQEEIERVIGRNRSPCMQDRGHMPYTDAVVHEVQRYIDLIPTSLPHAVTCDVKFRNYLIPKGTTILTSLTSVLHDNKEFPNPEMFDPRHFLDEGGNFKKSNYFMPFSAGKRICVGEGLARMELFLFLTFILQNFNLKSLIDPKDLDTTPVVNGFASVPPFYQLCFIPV

inhibition at 10 µM (CYP2D6): 100%
inhibition at 10 µM (CYP2C19): 55.3%
half-life (t1/2 i.v. rat): 1.05 h
IC50 (human TRPM8): < 10000 nM and 70 nM
SMILES: Cl.Clc1c(OCCNCc2ccco2)ccc2ccccc12 [Compound 1, 2-[(1-chloronaphthalen-2-yl)oxy]-N-(furan-2-ylmethyl)ethanaminium chloride]
time of inhibition of RBC, higher compared to vehicle group [1]: about 300 sec
reduction of Micturition Frequency (MF) ([1]; first 30 min): about 36%
